Data as given in patent US11767310B2, “Nicotinamide RIPK1 inhibitors” (AbbVie Inc., priority 2021, dated 2023).
Like-named read-outs stand apart in the source and are kept apart here.

Columns and labels:
Experiment in all cases: Kinase binding screen
Settings in all cases: read-out: Percent Control at 100 nM Compound Concentration
[1] = target: AURKB (Homo sapiens (Human), UniProt Q96GD4)
[2] = target: ADCK3 (Homo sapiens (Human), UniProt Q8NI60)
[3] = target: MERTK (Homo sapiens (Human), UniProt Q12866)
[4] = target: PIK3CA(H1047L) (Homo sapiens (Human), UniProt P42336, H1047L)
[5] = target: MARK4 (Homo sapiens (Human), UniProt Q96L34)
[6] = target: DDR1 (Homo sapiens (Human), UniProt Q08345)
[7] = target: p38-delta (Homo sapiens (Human), UniProt O15264)
[8] = target: EPHA3 (Homo sapiens (Human), UniProt P29320)
[9] = target: TNK1 (Homo sapiens (Human), UniProt Q13470)
[10] = target: CAMK2B (Homo sapiens (Human), UniProt Q13554)
[11] = target: PKMYT1 (Homo sapiens (Human), UniProt Q99640)
[12] = target: ABL1(T315I)-phosphorylated (Homo sapiens (Human), UniProt P00519, T315I)
[13] = target: RSK2(Kin.Dom.1-N-terminal) (Homo sapiens (Human), UniProt P51812)
[14] = target: MAST1 (Homo sapiens (Human), UniProt Q9Y2H9)
[15] = target: STK16 (Homo sapiens (Human), UniProt O75716)
[16] = target: YANK3 (Homo sapiens (Human), UniProt Q86UX6)
[17] = target: ABL1(F317I)-phosphorylated (Homo sapiens (Human), UniProt P00519, F317I)
[18] = target: FLT4 (Homo sapiens (Human), UniProt P35916)
[19] = target: GCN2(Kin.Dom.2,S808G) (Homo sapiens (Human), UniProt Q9P2K8, S808G)
[20] = target: NIM1 (Homo sapiens (Human), UniProt Q8IY84)
[21] = target: MYLK4 (Homo sapiens (Human), UniProt Q86YV6)
[22] = target: WEE2 (Homo sapiens (Human), UniProt P0C1S8)
[23] = target: MET (Homo sapiens (Human), UniProt P08581)
[24] = target: p38-alpha (Homo sapiens (Human), UniProt Q16539)
[25] = target: PIK3CA(E542K) (Homo sapiens (Human), UniProt P42336, E542K)
[26] = target: EIF2AK1 (Homo sapiens (Human), UniProt Q9BQI3)
[27] = target: BRAF(V600E) (Homo sapiens (Human), UniProt P15056, V600E)
[28] = target: CIT (Homo sapiens (Human), UniProt O14578)

Chain of MAST1 (Q9Y2H9 whole entry): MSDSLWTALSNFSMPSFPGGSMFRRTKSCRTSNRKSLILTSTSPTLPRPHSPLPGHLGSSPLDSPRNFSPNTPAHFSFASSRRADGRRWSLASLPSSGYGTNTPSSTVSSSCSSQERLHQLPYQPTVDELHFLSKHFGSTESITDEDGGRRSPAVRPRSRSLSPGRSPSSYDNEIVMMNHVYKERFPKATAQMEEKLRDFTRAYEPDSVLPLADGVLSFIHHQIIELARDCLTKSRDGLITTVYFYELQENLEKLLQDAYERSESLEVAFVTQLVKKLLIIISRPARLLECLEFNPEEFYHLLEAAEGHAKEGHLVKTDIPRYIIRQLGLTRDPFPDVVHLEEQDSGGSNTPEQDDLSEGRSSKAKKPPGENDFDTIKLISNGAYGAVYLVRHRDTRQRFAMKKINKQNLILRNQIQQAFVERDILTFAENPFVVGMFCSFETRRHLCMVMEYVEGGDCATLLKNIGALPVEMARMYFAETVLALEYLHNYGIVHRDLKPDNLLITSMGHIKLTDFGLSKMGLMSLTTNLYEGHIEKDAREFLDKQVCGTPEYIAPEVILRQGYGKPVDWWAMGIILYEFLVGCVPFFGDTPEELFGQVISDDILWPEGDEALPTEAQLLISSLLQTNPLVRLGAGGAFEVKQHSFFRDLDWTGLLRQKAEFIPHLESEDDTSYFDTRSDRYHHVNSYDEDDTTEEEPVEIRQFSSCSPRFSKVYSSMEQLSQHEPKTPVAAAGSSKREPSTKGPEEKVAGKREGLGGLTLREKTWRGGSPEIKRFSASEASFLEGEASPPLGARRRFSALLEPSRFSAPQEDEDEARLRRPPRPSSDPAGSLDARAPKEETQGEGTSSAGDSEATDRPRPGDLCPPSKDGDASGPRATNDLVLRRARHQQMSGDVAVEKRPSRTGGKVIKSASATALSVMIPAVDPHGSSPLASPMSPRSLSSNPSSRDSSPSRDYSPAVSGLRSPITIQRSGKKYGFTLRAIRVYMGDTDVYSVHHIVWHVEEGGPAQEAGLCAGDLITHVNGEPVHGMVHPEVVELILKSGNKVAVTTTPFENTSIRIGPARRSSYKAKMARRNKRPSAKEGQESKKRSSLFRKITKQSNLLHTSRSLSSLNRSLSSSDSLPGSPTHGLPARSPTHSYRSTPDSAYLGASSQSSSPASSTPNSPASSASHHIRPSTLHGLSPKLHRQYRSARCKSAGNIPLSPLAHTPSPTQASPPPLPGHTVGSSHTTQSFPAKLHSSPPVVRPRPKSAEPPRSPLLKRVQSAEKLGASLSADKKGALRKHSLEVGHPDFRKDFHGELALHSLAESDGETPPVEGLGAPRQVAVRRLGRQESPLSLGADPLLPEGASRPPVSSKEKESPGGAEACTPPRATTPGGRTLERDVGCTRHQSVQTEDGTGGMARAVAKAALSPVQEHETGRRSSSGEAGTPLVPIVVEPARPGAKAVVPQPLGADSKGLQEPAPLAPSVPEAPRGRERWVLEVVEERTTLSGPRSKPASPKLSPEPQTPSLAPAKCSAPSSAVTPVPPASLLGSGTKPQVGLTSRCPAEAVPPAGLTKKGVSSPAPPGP
Chain of YANK3 (Q86UX6 whole entry): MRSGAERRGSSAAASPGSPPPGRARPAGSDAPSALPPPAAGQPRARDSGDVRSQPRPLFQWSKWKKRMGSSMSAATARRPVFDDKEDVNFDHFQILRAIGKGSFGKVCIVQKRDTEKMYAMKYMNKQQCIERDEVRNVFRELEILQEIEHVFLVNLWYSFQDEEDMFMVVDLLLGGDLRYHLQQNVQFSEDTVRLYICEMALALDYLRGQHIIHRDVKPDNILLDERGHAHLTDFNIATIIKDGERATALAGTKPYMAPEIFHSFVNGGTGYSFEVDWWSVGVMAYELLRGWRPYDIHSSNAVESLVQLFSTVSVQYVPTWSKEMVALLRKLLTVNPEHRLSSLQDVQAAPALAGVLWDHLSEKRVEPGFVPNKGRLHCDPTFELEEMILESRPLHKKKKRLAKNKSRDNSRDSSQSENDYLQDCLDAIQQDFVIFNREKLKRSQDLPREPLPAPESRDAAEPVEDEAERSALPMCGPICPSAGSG
Chain of FLT4 (P35916 25-1363): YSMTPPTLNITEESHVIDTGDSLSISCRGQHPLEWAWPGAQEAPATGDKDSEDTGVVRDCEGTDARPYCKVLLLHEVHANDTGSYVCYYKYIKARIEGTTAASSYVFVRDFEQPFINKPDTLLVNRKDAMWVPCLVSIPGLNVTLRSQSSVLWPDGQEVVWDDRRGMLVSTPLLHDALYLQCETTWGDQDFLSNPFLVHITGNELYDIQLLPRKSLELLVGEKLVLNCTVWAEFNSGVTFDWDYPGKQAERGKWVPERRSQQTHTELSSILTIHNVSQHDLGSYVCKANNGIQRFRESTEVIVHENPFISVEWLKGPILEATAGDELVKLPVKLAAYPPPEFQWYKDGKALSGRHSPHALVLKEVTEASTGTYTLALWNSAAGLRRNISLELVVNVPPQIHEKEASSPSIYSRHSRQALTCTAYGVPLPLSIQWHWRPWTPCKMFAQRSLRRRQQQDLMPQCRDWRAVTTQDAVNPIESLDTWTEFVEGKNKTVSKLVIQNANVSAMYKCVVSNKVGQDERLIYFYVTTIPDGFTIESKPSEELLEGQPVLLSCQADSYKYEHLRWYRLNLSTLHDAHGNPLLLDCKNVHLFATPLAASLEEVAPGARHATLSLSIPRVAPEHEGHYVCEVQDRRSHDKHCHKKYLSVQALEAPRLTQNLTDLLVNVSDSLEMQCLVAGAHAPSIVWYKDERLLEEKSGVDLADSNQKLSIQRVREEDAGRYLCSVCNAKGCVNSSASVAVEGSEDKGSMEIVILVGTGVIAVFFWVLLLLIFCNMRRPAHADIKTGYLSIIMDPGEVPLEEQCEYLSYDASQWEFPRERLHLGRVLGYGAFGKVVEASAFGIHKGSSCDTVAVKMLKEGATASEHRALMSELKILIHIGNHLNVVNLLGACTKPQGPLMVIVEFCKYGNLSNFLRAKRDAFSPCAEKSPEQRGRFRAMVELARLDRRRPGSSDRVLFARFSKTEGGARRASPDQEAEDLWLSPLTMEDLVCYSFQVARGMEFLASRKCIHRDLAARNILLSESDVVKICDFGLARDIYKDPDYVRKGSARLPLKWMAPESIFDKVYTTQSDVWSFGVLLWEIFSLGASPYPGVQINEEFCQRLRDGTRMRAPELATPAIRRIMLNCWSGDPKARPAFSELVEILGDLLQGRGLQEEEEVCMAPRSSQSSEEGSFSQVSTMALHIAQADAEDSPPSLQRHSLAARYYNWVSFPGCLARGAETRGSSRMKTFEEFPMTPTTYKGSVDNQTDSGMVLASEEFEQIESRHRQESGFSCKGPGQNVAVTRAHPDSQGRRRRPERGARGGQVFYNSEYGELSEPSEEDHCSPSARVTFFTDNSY
Chain of MARK4 (Q96L34 whole entry): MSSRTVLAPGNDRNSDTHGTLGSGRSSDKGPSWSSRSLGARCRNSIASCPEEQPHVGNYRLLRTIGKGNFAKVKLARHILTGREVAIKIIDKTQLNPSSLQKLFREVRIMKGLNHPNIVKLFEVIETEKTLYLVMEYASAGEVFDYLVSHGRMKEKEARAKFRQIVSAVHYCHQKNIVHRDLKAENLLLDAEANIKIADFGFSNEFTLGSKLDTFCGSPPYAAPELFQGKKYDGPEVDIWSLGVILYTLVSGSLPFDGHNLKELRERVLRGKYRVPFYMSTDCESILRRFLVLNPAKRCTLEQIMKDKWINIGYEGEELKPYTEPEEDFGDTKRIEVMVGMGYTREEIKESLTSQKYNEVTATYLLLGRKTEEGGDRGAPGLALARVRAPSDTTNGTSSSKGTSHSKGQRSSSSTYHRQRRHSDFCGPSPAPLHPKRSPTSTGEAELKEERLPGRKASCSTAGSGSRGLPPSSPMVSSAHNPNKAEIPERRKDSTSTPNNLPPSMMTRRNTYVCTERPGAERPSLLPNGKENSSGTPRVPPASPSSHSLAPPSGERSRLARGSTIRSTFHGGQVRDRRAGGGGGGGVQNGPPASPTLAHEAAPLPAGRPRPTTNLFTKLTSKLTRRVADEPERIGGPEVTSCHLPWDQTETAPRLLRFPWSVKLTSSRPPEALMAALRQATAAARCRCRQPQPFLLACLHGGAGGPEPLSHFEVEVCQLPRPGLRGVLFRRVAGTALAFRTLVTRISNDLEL
Chain of BRAF(V600E) (P15056 whole entry V600E): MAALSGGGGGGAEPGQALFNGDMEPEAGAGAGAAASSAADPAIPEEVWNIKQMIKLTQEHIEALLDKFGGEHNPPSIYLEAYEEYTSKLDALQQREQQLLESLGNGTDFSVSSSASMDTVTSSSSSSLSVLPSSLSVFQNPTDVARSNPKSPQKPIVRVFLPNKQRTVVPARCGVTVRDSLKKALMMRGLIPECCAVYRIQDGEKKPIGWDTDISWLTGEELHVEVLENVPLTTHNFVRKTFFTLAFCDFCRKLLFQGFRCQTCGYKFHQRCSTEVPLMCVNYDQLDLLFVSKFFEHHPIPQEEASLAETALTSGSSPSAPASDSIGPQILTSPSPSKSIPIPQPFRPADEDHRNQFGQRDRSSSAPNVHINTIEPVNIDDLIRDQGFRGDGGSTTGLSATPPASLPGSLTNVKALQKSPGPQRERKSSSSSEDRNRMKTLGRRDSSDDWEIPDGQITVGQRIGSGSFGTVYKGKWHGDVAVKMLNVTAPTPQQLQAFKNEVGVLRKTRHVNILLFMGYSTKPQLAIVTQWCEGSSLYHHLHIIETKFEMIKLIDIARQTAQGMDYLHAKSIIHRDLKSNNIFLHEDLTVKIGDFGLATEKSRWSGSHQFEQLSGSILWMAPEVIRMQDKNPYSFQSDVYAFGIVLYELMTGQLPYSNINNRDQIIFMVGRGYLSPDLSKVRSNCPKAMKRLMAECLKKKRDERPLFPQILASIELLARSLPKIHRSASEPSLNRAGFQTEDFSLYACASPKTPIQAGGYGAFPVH

SMILES: CN(C[C@H](Cc1ccccc1)OP(=O)(O)O)C(=O)c1cncc(C#Cc2cnn(C(F)F)c2)c1 [Example 19, (S)-1-(5-((1-(difluoromethyl)-1H-pyrazol-4-yl)ethynyl)-N-methylnicotinamido)-3-phenylpropan-2-yl dihydrogen phosphate]
- remaining activity at 0.1 µM [1]: 90%
- remaining activity at 0.1 µM [2]: 100%
- remaining activity at 0.1 µM [3]: 100%
- remaining activity at 0.1 µM [4]: 71%
- remaining activity at 0.1 µM [5]: 94%
- remaining activity at 0.1 µM [6]: 100%
- remaining activity at 0.1 µM [7]: 100%
- remaining activity at 0.1 µM [8]: 100%
- remaining activity at 0.1 µM [9]: 100%
- remaining activity at 0.1 µM [10]: 92%
- remaining activity at 0.1 µM [11]: 100%
- remaining activity at 0.1 µM [12]: 92%
- remaining activity at 0.1 µM [13]: 94%
- remaining activity at 0.1 µM [14]: 97%
- remaining activity at 0.1 µM [15]: 92%
- remaining activity at 0.1 µM [16]: 54%
- remaining activity at 0.1 µM [17]: 98%
- remaining activity at 0.1 µM [18]: 100%
- remaining activity at 0.1 µM [19]: 97%
- remaining activity at 0.1 µM [20]: 89%
- remaining activity at 0.1 µM [21]: 100%
- remaining activity at 0.1 µM [22]: 100%
- remaining activity at 0.1 µM [23]: 100%
- remaining activity at 0.1 µM [24]: 100%
- remaining activity at 0.1 µM [25]: 81%
- remaining activity at 0.1 µM [26]: 96%
- remaining activity at 0.1 µM [27]: 97%
- remaining activity at 0.1 µM [28]: 95%

SMILES: CN(C[C@@H](O)Cc1ccccc1)C(=O)c1cncc(C#Cc2cnn(C(F)F)c2)c1 [Example 2, (S)-5-((1-(difluoromethyl)-1H-pyrazol-4-yl)ethynyl)-N-(2-hydroxy-3-phenylpropyl)-N-methylnicotinamide]
- remaining activity at 0.1 µM ([1]; AURKB): 100%
- remaining activity at 0.1 µM ([2]; ADCK3): 100%
- remaining activity at 0.1 µM ([3]; MERTK): 100%
- remaining activity at 0.1 µM ([4]; PIK3CA(H1047L)): 85%
- remaining activity at 0.1 µM ([5]; MARK4): 91%
- remaining activity at 0.1 µM ([6]; DDR1): 100%
- remaining activity at 0.1 µM ([7]; p38-delta): 100%
- remaining activity at 0.1 µM ([8]; EPHA3): 100%
- remaining activity at 0.1 µM ([9]; TNK1): 100%
- remaining activity at 0.1 µM ([10]; CAMK2B): 100%
- remaining activity at 0.1 µM ([11]; PKMYT1): 99%
- remaining activity at 0.1 µM ([12]; ABL1(T315I)-phosphorylated): 80%
- remaining activity at 0.1 µM ([13]; RSK2(Kin.Dom.1-N-terminal)): 100%
- remaining activity at 0.1 µM ([14]; MAST1): 100%
- remaining activity at 0.1 µM ([15]; STK16): 98%
- remaining activity at 0.1 µM ([16]; YANK3): 67%
- remaining activity at 0.1 µM ([17]; ABL1(F317I)-phosphorylated): 100%
- remaining activity at 0.1 µM ([18]; FLT4): 100%
- remaining activity at 0.1 µM ([19]; GCN2(Kin.Dom.2,S808G)): 95%
- remaining activity at 0.1 µM ([20]; NIM1): 89%
- remaining activity at 0.1 µM ([21]; MYLK4): 99%
- remaining activity at 0.1 µM ([22]; WEE2): 100%
- remaining activity at 0.1 µM ([23]; MET): 100%
- remaining activity at 0.1 µM ([24]; p38-alpha): 100%
- remaining activity at 0.1 µM ([25]; PIK3CA(E542K)): 89%
- remaining activity at 0.1 µM ([26]; EIF2AK1): 100%
- remaining activity at 0.1 µM ([27]; BRAF(V600E)): 97%
- remaining activity at 0.1 µM ([28]; CIT): 98%
